Measurements taken from ChEMBL document CHEMBL4627252, “Synthesis and biological evaluation of bis-N2,N2'-(4-hydroxycoumarin-3-yl)ethylidene]-2,3-dihydroxysuccinodihydrazides” (Bioorg Med Chem Lett, 2020).
In brackets after ≈: the same amount, converted by molar mass.

Key:
[1] = test system: Mycobacterium tuberculosis; experiment: Antimycobacterial activity against Mycobacterium tuberculosis H37Rv assessed as inhibition of bacterial growth by measuring calculated MIC90 measured after 14 days by green fluorescent protein based microplate assay; type: functional; conditions: 336 h
Plasmodium falciparum = experiment: Antimalarial activity against Plasmodium falciparum 3D7 infected in human erythrocytes assessed as parasite viability at 20 uM incubated for 48 hrs by parasite LDH release based colorimetric assay relative to control; type: functional
[2] = target: Human immunodeficiency virus type 1 protease (Human immunodeficiency virus 1) (UniProt Q72874); experiment: Inhibition of HIV-1 protease at 20 uM relative to control
[3] = Cytotoxicity against human HeLa cells assessed as cell viability at 20 uM incubated for 24 hrs by resazurin dye base fluorescence analysis relative to control; type: cell-based; conditions: read-out: Activity
[4] = test system: Mycobacterium tuberculosis; experiment: Antimycobacterial activity against Mycobacterium tuberculosis H37Rv assessed as inhibition of bacterial growth by measuring visual MIC90 measured after 14 days by green fluorescent protein based microplate assay; type: functional; conditions: 336 h
[5] = test system: Trypanosoma brucei brucei; experiment: Antitrypanosomal activity against Trypanosoma brucei brucei assessed as parasite viability at 20 uM relative to control; type: functional
[6] = target: Human immunodeficiency virus type 1 integrase (Human immunodeficiency virus 1, UniProt Q7ZJM1); experiment: Inhibition of HIV-1 integrase
Human immunodeficiency virus type 1 integrase, sequence (Q7ZJM1 whole entry): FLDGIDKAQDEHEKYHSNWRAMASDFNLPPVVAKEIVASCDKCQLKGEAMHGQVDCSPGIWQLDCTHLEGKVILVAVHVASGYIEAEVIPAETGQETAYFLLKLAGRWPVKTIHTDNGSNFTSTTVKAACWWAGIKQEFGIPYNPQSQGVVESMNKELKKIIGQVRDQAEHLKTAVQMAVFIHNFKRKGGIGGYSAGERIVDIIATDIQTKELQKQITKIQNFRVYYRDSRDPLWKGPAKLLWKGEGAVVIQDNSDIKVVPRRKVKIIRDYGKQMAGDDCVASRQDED

HeLa = experiment: Cytotoxicity against human HeLa cells assessed as inhibition of cell viability incubated for 24 hrs by resazurin dye based fluorescence analysis
[7] = test system: Trypanosoma brucei brucei; experiment: Antitrypanosomal activity against Trypanosoma brucei brucei assessed as inhibition of parasite viability; type: functional, organism-based

C/C(=N\NC(=O)C(O)C(O)C(=O)N/N=C(\C)c1c(O)c2cc(C)ccc2oc1=O)c1c(O)c2cc(C)ccc2oc1=O (racemic)
MIC90 [1]: > 125 µM
Activity (Plasmodium falciparum): 100%
inhibition [2]: 8.3%
viability at 24 h, 20 µM [3]: 85.3%
MIC90 [4]: > 125 µM
Activity [5]: 100%

C/C(=N\NC(=O)C(O)C(O)C(=O)N/N=C(\C)c1c(O)c2cc(F)ccc2oc1=O)c1c(O)c2cc(F)ccc2oc1=O (racemic)
MIC90 [1]: > 125 µM
Activity (Plasmodium falciparum): 92.8%
inhibition [2]: 0%
viability at 24 h, 20 µM [3]: 84.6%
MIC90 [4]: > 125 µM
Activity [5]: 32.8%

COc1ccc2oc(=O)c(/C(C)=N/NC(=O)C(O)C(O)C(=O)N/N=C(\C)c3c(O)c4cc(OC)ccc4oc3=O)c(O)c2c1 (racemic)
MIC90 [1]: > 125 µM
Activity (Plasmodium falciparum): 100%
inhibition [2]: 0%
viability at 24 h, 20 µM [3]: 84.6%
MIC90 [4]: > 125 µM
Activity [5]: 100%

C/C(=N\NC(=O)C(O)C(O)C(=O)N/N=C(\C)c1c(O)c2ccccc2oc1=O)c1c(O)c2ccccc2oc1=O (racemic)
MIC90 [1]: > 125 µM
Activity (Plasmodium falciparum): 90.7%
IC50 [6]: 3500 nM
inhibition [2]: 0%
viability at 24 h, 20 µM [3]: 78.4%
MIC90 [4]: > 125 µM
Activity [5]: 42.7%

C/C(=N\NC(=O)C(O)C(O)C(=O)N/N=C(\C)c1c(O)c2cc(Br)ccc2oc1=O)c1c(O)c2cc(Br)ccc2oc1=O (racemic)
MIC90 [1]: 18.9 µM (≈ 13.4 µg/mL)
Activity (Plasmodium falciparum): 100%
inhibition [2]: 0%
viability at 24 h, 20 µM [3]: 100%
MIC90 [4]: 15.6 µM (≈ 11.1 µg/mL)
Activity [5]: 100%

C/C(=N\NC(=O)C(O)C(O)C(=O)N/N=C(\C)c1c(O)c2cc(Cl)ccc2oc1=O)c1c(O)c2cc(Cl)ccc2oc1=O (racemic)
MIC90 [1]: 54.2 µM (≈ 33.6 µg/mL)
Activity (Plasmodium falciparum): 93.8%
inhibition [2]: 0%
viability at 24 h, 20 µM [3]: 100%
MIC90 [4]: 31.2 µM (≈ 19.4 µg/mL)
Activity [5]: 44.6%

C/C(=N\NC(=O)C(O)C(O)C(=O)N/N=C(\C)c1c(O)c2c(ccc3ccccc32)oc1=O)c1c(O)c2c(ccc3ccccc32)oc1=O (racemic)
MIC90 [1]: 29.5 µM (≈ 19.2 µg/mL)
Activity (Plasmodium falciparum): 100%
inhibition [2]: 0%
viability at 24 h, 20 µM [3]: 98.1%
MIC90 [4]: 31.2 µM (≈ 20.3 µg/mL)
Activity [5]: 100%

CC[C@H]1CN2CCc3cc(OC)c(OC)cc3[C@@H]2C[C@@H]1C[C@H]1NCCc2cc(OC)c(OC)cc21 [EMETINE]
IC50 (HeLa): 13 nM

N=C(N)c1ccc(OCCCCCOc2ccc(C(=N)N)cc2)cc1 [PENTAMIDINE]
IC50 [7]: 39 nM

CO[C@H]1/C=C/O[C@@]2(C)Oc3c(C)c(O)c4c(O)c(c(/C=N/N5CCN(C)CC5)c(O)c4c3C2=O)NC(=O)/C(C)=C\C=C\[C@H](C)[C@H](O)[C@@H](C)[C@@H](O)[C@@H](C)[C@H](OC(C)=O)[C@@H]1C [RIFAMPIN]
MIC90 [1]: 0.007 µM (≈ 0.00576 µg/mL)
MIC90 [4]: 0.019 µM (≈ 0.0156 µg/mL)
